Results published in ChEMBL document CHEMBL3352763, “Selective inhibition of human carbonic anhydrases by novel amide derivatives of probenecid: synthesis, biological evaluation and molecular modelling studies” (Bioorg Med Chem, 2014).

Key:
Carbonic anhydrase 2 = Carbonic anhydrase 2 (Homo sapiens, UniProt P00918); test: Inhibition of recombinant human carbonic anhydrase 2 after 15 mins by stopped flow CO2 hydration assay
Carbonic anhydrase 9 = Carbonic anhydrase 9 (Homo sapiens, UniProt Q16790); test: Inhibition of recombinant human carbonic anhydrase 9 after 15 mins by stopped flow CO2 hydration assay
Carbonic anhydrase 1 = Carbonic anhydrase 1 (Homo sapiens, UniProt P00915); test: Inhibition of recombinant human carbonic anhydrase 1 after 15 mins by stopped flow CO2 hydration assay
Sequence of Carbonic anhydrase 1 (P00915 whole entry): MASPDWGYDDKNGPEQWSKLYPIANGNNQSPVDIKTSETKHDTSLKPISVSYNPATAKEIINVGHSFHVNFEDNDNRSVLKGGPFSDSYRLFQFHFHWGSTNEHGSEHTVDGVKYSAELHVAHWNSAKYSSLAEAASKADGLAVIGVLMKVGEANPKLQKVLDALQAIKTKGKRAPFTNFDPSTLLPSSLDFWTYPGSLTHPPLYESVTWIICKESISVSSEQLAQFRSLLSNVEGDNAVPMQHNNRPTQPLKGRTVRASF

Carbonic anhydrase 12 = Carbonic anhydrase 12 (Homo sapiens, UniProt O43570); test: Inhibition of recombinant human carbonic anhydrase 12 after 15 mins by stopped flow CO2 hydration assay
Sequence of Carbonic anhydrase 12 (O43570 whole entry): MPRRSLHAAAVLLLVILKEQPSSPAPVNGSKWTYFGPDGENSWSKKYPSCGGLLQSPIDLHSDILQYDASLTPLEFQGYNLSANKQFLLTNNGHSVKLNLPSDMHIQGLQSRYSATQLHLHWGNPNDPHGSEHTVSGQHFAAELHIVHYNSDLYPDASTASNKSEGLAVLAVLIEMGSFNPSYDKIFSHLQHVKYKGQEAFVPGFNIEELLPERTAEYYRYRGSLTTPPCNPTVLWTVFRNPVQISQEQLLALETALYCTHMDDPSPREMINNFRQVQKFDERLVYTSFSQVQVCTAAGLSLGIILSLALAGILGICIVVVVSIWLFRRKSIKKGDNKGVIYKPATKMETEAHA

SMILES: CCCN(CCC)S(=O)(=O)c1ccc(C(=O)Nc2cccc([N+](=O)[O-])c2)cc1
- Ki (Carbonic anhydrase 2): > 10000 nM
- Ki (Carbonic anhydrase 9): 265 nM

SMILES: CCCN(CCC)S(=O)(=O)c1ccc(C(=O)O)cc1 [PROBENECID]
- Ki (Carbonic anhydrase 1): > 10000 nM
- Ki (Carbonic anhydrase 2): 431 nM
- Ki (Carbonic anhydrase 9): 360 nM
- Ki (Carbonic anhydrase 12): 1240 nM

SMILES: CCCN(CCC)S(=O)(=O)c1ccc(C(=O)Nc2cccc(Cl)c2)cc1
- Ki (Carbonic anhydrase 2): > 10000 nM
- Ki (Carbonic anhydrase 9): 198 nM

SMILES: CCCN(CCC)S(=O)(=O)c1ccc(C(=O)NC2CCCCC2)cc1
- Ki (Carbonic anhydrase 2): > 10000 nM
- Ki (Carbonic anhydrase 9): 234 nM

SMILES: CCCN(CCC)S(=O)(=O)c1ccc(C(=O)Nc2nncs2)cc1
- Ki (Carbonic anhydrase 2): > 10000 nM
- Ki (Carbonic anhydrase 9): 216 nM

SMILES: CCCN(CCC)S(=O)(=O)c1ccc(C(=O)Nc2ccccc2)cc1
- Ki (Carbonic anhydrase 2): > 10000 nM
- Ki (Carbonic anhydrase 9): 171 nM

SMILES: CCCN(CCC)S(=O)(=O)c1ccc(C(=O)NC2CCCCC2C)cc1 (configuration not stated)
- Ki (Carbonic anhydrase 2): > 10000 nM
- Ki (Carbonic anhydrase 9): 260 nM

SMILES: CCCN(CCC)S(=O)(=O)c1ccc(C(=O)Nc2ccc(Cl)cc2)cc1
- Ki (Carbonic anhydrase 2): > 10000 nM
- Ki (Carbonic anhydrase 9): 243 nM

SMILES: CCCN(CCC)S(=O)(=O)c1ccc(C(=O)Nc2ccccc2N)cc1
- Ki (Carbonic anhydrase 2): > 10000 nM
- Ki (Carbonic anhydrase 9): 223 nM

SMILES: CCCN(CCC)S(=O)(=O)c1ccc(C(=O)NC)cc1
- Ki (Carbonic anhydrase 2): > 10000 nM
- Ki (Carbonic anhydrase 9): 165 nM

SMILES: CCCN(CCC)S(=O)(=O)c1ccc(C(=O)Nc2ccccc2[N+](=O)[O-])cc1
- Ki (Carbonic anhydrase 2): > 10000 nM

SMILES: CCCN(CCC)S(=O)(=O)c1ccc(C(=O)Nc2ccccn2)cc1
- Ki (Carbonic anhydrase 2): > 10000 nM
- Ki (Carbonic anhydrase 9): 228 nM

SMILES: CCCN(CCC)S(=O)(=O)c1ccc(C(=O)NCCN2CCOCC2)cc1
- Ki (Carbonic anhydrase 2): > 10000 nM
- Ki (Carbonic anhydrase 9): 251 nM
